Like-named read-outs stand apart in the source and are kept apart here.
Key:
[1] = biological target: human somatostatin receptor subtype 5 (Homo sapiens, UniProt P35346); experiment: cAMP assay for SST5R (inhibition of cAMP via human SST5 receptor); details: for Fold selectivity for SST5 vs SST2: SST5 over SST2, class symbols
Experimental: cAMP Assay Protocol for SST5R:
The cells are cultured at 37° C., 5% CO2 and 95% humidity. […] The cells are incubated for 20 minutes at 37° C. […] The cells are treated with 50 μL of lysis buffer (HRTF cAMP kit, Cisbio) for 30 minutes and then the lysate is diluted to 250 μL with assay buffer. The lysate is transferred to 384-well plates and cAMP detection and visualization antibodies are added and incubated for 1-24 hours at room temperature. The time-resolved fluorescent signal is read with a Tecan M1000Pro multiplate reader. The intracellular cAMP concentrations are calculated by regression to a standard curve and are plotted vs. the concentration of the compounds of the invention and the EC50 of the compounds are calculated using standard methods. All data manipulations are in GraphPad Prism v6 or v7.

[2] = biological target: T1, human somatostatin receptor subtype 2 (Homo sapiens, UniProt P30874); experiment: cAMP assay for SST2R (inhibition of cAMP via human SST2 receptor); assay type: cell-based; details: Table B, read-out: SST2 potency
T1 construct: expressed in transfected cells
T1 sequence (P30874 whole entry): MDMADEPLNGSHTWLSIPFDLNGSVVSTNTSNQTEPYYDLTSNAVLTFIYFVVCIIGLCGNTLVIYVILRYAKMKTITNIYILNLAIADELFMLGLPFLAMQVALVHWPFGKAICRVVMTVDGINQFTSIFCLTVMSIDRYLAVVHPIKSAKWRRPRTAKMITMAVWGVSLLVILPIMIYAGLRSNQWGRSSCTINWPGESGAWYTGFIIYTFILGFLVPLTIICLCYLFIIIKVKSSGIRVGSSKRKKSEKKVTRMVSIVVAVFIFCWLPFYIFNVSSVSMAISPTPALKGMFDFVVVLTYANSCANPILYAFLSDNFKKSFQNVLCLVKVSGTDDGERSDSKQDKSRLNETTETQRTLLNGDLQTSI
Source text: cAMP Assay Protocol for SST2R:

[3] = read-out: SST5 potency, inhibition of cAMP via human SST5 receptor, Table B

human somatostatin receptor subtype 5, sequence (P35346 whole entry): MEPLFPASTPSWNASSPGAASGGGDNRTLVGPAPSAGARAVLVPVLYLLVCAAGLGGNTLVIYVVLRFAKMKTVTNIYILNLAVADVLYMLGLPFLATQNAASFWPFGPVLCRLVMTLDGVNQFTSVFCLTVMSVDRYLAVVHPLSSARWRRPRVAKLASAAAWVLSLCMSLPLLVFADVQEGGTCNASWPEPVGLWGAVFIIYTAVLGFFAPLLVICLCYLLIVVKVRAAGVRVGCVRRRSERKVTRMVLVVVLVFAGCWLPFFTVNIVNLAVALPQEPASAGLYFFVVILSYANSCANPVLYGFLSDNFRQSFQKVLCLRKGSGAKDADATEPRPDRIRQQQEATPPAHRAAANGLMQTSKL

Row | Compound | EC50 [1] | Fold selectivity for SST5 vs SST2 [1] | EC50 [1, 3] | EC50 [2]
1 | N#Cc1ccc(-c2cncc(-c3nc4cccc(F)c4[nH]3)c2N2CC[C@H](N)C2)s1 [Compound 2-26, 5-{4-[(3S)-3-aminopyrrolidin-1-yl]-5-(4-fluoro-1H-1,3-benzodiazol-2-yl)pyridin-3-yl}thiophene-2-carbonitrile] | < 10 nM | ++ (++=100 to 499) | < 10 nM | 100 to 1000 nM
2 | CC1(N)CCN(c2c(-c3cccc(S(C)(=O)=O)c3)cncc2-c2nc3cccc(F)c3[nH]2)C1 (centres unmarked) [Compound 2-21, 1-[3-(4-fluoro-1H-1,3-benzodiazol-2-yl)-5-(3-methanesulfonylphenyl)pyridin-4-yl]-3-methylpyrrolidin-3-amine] | < 10 nM | +++ (+++=≥500) | < 10 nM | > 1000 nM
3 | CC1(N)CCN(c2c(-c3ccc4c(c3)OCC4)cncc2-c2nc3cccc(F)c3[nH]2)C1 (centres unmarked) [Compound 2-22, 1-[3-(2,3-dihydro-1-benzofuran-6-yl)-5-(4-fluoro-1H-1,3-benzodiazol-2-yl)pyridin-4-yl]-3-methylpyrrolidin-3-amine] | < 10 nM | ++ (++=100 to 499) | < 10 nM | 100 to 1000 nM
4 | CC(N)C1(C)CN(c2c(-c3cccc(C(F)(F)F)c3)cncc2-c2nc3cc(F)cc(F)c3[nH]2)C1 (centres unmarked) [Compound 1-69, 1-{1-[3-(4,6-difluoro-1H-1,3-benzodiazol-2-yl)-5-[3-(trifluoromethyl)phenyl]pyridin-4-yl]-3-methylazetidin-3-yl}ethan-1-amine] | < 10 nM | +++ (+++=≥500) | < 10 nM | > 1000 nM
5 | CC1(N)CCN(c2c(-c3ccc(F)c(C#N)c3)cncc2-c2nc3cccc(C#N)c3[nH]2)C1 (centres unmarked) [Compound 2-147, 2-[4-(3-amino-3-methylpyrrolidin-1-yl)-5-(3-cyano-4-fluorophenyl)pyridin-3-yl]-1H-1,3-benzodiazole-4-carbonitrile] | < 10 nM | +++ (+++=≥500) | < 10 nM | 100 to 1000 nM
6 | CC1(N)CCN(c2c(-c3cccc(OC(F)(F)F)c3)cncc2-c2nc3cccc(F)c3[nH]2)C1 (centres unmarked) [Compound 2-10, 1-[3-(4-fluoro-1H-1,3-benzodiazol-2-yl)-5-[3-(trifluoromethoxy)phenyl]pyridin-4-yl]-3-methylpyrrolidin-3-amine] | < 10 nM | +++ (+++=≥500) | < 10 nM | 100 to 1000 nM
7 | CC1(N)CCN(c2c(-c3ccc4cc[nH]c4c3)cncc2-c2nc3cccc(F)c3[nH]2)C1 (centres unmarked) [Compound 2-29, 1-[3-(4-fluoro-1H-1,3-benzodiazol-2-yl)-5-(1H-indol-6-yl)pyridin-4-yl]-3-methylpyrrolidin-3-amine] | < 10 nM | + (+=10 to 99) | < 10 nM | 100 to 1000 nM
8 | Cc1cc(F)cc(-c2cncc(-c3nc4cc(C)ccc4[nH]3)c2N2CC(CN)C2)c1 [Compound 1-10, 1-{1-[3-(3-fluoro-5-methylphenyl)-5-(5-methyl-1H-1,3-benzodiazol-2-yl)pyridin-4-yl]azetidin-3-yl}methanamine] | < 10 nM | +++ (+++=≥500) | < 10 nM | > 1000 nM
9 | Cc1cccc2nc(-c3cncc(-c4cccc(C#N)c4)c3N3CC[C@H](N)C3)[nH]c12 [Compound 2-80, 3-{4-[(3S)-3-aminopyrrolidin-1-yl]-5-(4-methyl-1H-1,3-benzodiazol-2-yl)pyridin-3-yl}benzonitrile] | < 10 nM | +++ (+++=≥500) | < 10 nM | 100 to 1000 nM
10 | Cc1cc(F)cc(-c2cncc(-c3nc4cc(Cl)ccc4[nH]3)c2N2CC(CN)C2)c1 [Compound 1-4, 1-{1-[3-(5-chloro-1H-1,3-benzodiazol-2-yl)-5-(3-fluoro-5-methylphenyl)pyridin-4-yl]azetidin-3-yl}methanamine] | 10 to 100 nM | ++ (++=100 to 499) | 10 to 100 nM | > 1000 nM
11 | Cc1ccnc2nc(-c3cncc(-c4cccc(C#N)c4)c3N3CCC(C)(N)C3)[nH]c12 (centres unmarked) [Compound 2-122, 3-[4-(3-amino-3-methylpyrrolidin-1-yl)-5-{7-methyl-1H-imidazo[4,5-b]pyridin-2-yl}pyridin-3-yl]benzonitrile] | < 10 nM | ++ (++=100 to 499) | < 10 nM | 100 to 1000 nM
12 | Cc1cccc2nc(-c3cncc(-c4ccnc(C#N)c4)c3N3CCC(C)(N)C3)[nH]c12 (centres unmarked) [Compound 2-123, 4-(3-amino-3-methylpyrrolidin-1-yl)-5-(4-methyl-1H-1,3-benzodiazol-2-yl)-[3,4′-bipyridine]-2′-carbonitrile] | < 10 nM | +++ (+++=≥500) | < 10 nM | 10 to 100 nM
13 | CC1(N)CCN(c2c(-c3ccnc(C#N)c3)cncc2-c2nc3cccc(F)c3[nH]2)C1 (centres unmarked) [Compound 2-121, 4-(3-amino-3-methylpyrrolidin-1-yl)-5-(4-fluoro-1H-1,3-benzodiazol-2-yl)-[3,4′-bipyridine]-2′-carbonitrile] | < 10 nM | +++ (+++=≥500) | < 10 nM | 100 to 1000 nM
14 | CC1(N)CCN(c2c(-c3cccc(C(N)=O)c3)cncc2-c2nc3c(F)cccc3[nH]2)C1 (centres unmarked) [Compound 2-18, 3-[4-(3-amino-3-methylpyrrolidin-1-yl)-5-(4-fluoro-1H-1,3-benzodiazol-2-yl)pyridin-3-yl]benzamide] | < 10 nM | +++ (+++=≥500) | < 10 nM | > 1000 nM
15 | N#Cc1cc(-c2cncc(-c3nc4cccc(C(F)(F)F)c4[nH]3)c2N2CC[C@H](N)C2)ccc1F [Compound 2-60, 5-{4-[(3S)-3-aminopyrrolidin-1-yl]-5-[4-(trifluoromethyl)-1H-1,3-benzodiazol-2-yl]pyridin-3-yl}-2-fluorobenzonitrile] | < 10 nM | ++ (++=100 to 499) | < 10 nM | 100 to 1000 nM
16 | N#Cc1cccc(-c2cncc(-c3nc4c(F)cccc4[nH]3)c2N2CCC(N)(CO)C2)c1 (centres unmarked) [Compound 2-54, 3-{4-[3-amino-3-(hydroxymethyl)pyrrolidin-1-yl]-5-(4-fluoro-1H-1,3-benzodiazol-2-yl)pyridin-3-yl}benzonitrile] | < 10 nM | +++ (+++=≥500) | < 10 nM | 100 to 1000 nM

Second part, the molecule after the results:

Row | EC50 [1] | Fold selectivity for SST5 vs SST2 [1] | EC50 [1, 3] | EC50 [2] | Compound
17 | < 10 nM | +++ (+++=≥500) | < 10 nM | > 1000 nM | COc1ccnc2nc(-c3cncc(-c4ccc(F)c(C#N)c4)c3N3CC[C@](C)(N)C3)[nH]c12 [Compound 2-172, 5-{4-[(3S)-3-amino-3-methylpyrrolidin-1-yl]-5-{7-methoxy-1H-imidazo[4,5-b]pyridin-2-yl}pyridin-3-yl}-2-fluorobenzonitrile]
18 | 10 to 100 nM | ++ (++=100 to 499) | 10 to 100 nM | > 1000 nM | Cc1cc(-c2cncc(-c3nc4c(F)cccc4[nH]3)c2N2CC[C@H](N)C2)ccn1 [Compound 2-181, (3S)-1-[5-(4-fluoro-1H-1,3-benzodiazol-2-yl)-2′-methyl-[3,4′-bipyridin]-4-yl]pyrrolidin-3-amine]
19 | < 10 nM | +++ (+++=≥500) | < 10 nM | 10 to 100 nM | CC1(N)CCN(c2c(-c3ccnc(C#N)c3)cncc2-c2nc3cccc(Cl)c3[nH]2)C1 (centres unmarked) [Compound 2-157, 4-(3-amino-3-methylpyrrolidin-1-yl)-5-(4-chloro-1H-1,3-benzodiazol-2-yl)-[3,4′-bipyridine]-2′-carbonitrile]
20 | 10 to 100 nM | + (+=10 to 99) | 10 to 100 nM | 100 to 1000 nM | Cc1cc(F)cc(-c2cncc(-c3nc4ccc(Cl)cc4[nH]3)c2N2CC[C@H](N)C2)c1 [Compound 2-196, (3S)-1-[3-(6-chloro-1H-1,3-benzodiazol-2-yl)-5-(3-fluoro-5-methylphenyl)pyridin-4-yl]pyrrolidin-3-amine]
21 | < 10 nM | +++ (+++=≥500) | < 10 nM | 100 to 1000 nM | C[C@]1(N)CCN(c2c(-c3ccnc(C#N)c3)cncc2-c2nc3cccc(Cl)c3[nH]2)C1 [Compound 2-163, 4-[(3S)-3-amino-3-methylpyrrolidin-1-yl]-5-(4-chloro-1H-1,3-benzodiazol-2-yl)-[3,4′-bipyridine]-2′-carbonitrile]
22 | < 10 nM | +++ (+++=≥500) | < 10 nM | 100 to 1000 nM | Cc1ccnc2nc(-c3cncc(-c4cc(F)cc(C#N)c4)c3N3CC[C@](C)(N)C3)[nH]c12 [Compound 2-202, 3-{4-[(3S)-3-amino-3-methylpyrrolidin-1-yl]-5-{7-methyl-1H-imidazo[4,5-b]pyridin-2-yl}pyridin-3-yl}-5-fluorobenzonitrile]
23 | < 10 nM | +++ (+++=≥500) | < 10 nM | 100 to 1000 nM | Cc1cc(F)cc2[nH]c(-c3cncc(-c4ccnc(C#N)c4)c3N3CC[C@](C)(N)C3)nc12 [Compound 2-166, 4-[(3S)-3-amino-3-methylpyrrolidin-1-yl]-5-(6-fluoro-4-methyl-1H-1,3-benzodiazol-2-yl)-[3,4′-bipyridine]-2′-carbonitrile]
24 |  | +++ (+++=≥500) | < 10 nM | > 1000 nM | N#Cc1cc(F)cc(-c2cncc(-c3nc4cc(F)cc(F)c4[nH]3)c2N2CC[C@H](N)C2)c1 [Compound 2-195, 3-{4-[(3S)-3-aminopyrrolidin-1-yl]-5-(4,6-difluoro-1H-1,3-benzodiazol-2-yl)pyridin-3-yl}-5-fluorobenzonitrile]

From patent US11608335B2, “Somatostatin modulators and uses thereof” (CRINETICS PHARMACEUTICALS, INC., priority 2018, dated 2023)
